According to PubChem BioAssay AID1845200 (Molecular Pharmacology Branch, DTP, NCI, 2023):

System: ASPS-1 complex tumor spheroids, viability
Assay: Anticancer human tumor ASPS-1 cell line growth inhibition;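 also: spheroids exposed to agents for 7 days after 3 days of growth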;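 as to viability, T/C: 100% = DMSO vehicle treated spheroids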
Settings: for IC50: curve of first compound; for viability, T/C: stronger effect = lower value
How it was run: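 Single agents and combinations were tested on spheroids built from tumor cells plus HUVEC and hMSC, at half-log dilutions starting at or near clinical Cmax, else 10 microM; final DMSO 0.25% (v/v).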

[1] = second compound 30 pM, first compound 0.0316 µM
[2] = second compound 30 pM, first compound 0.1 µM
[3] = second compound 30 pM, first compound 0.316 µM
[4] = second compound 30 pM, first compound 1 µM
[5] = second compound 30 pM, first compound 3.16 µM
[6] = second compound 30 pM, first compound 10 µM
[7] = second compound 94.9 pM, first compound 0.0316 µM
[8] = second compound 94.9 pM, first compound 0.1 µM
[9] = second compound 94.9 pM, first compound 0.316 µM
[10] = second compound 94.9 pM, first compound 1 µM
[11] = second compound 94.9 pM, first compound 3.16 µM
[12] = second compound 94.9 pM, first compound 10 µM
[13] = second compound 0.0003 µM, first compound 0.0316 µM
[14] = second compound 0.0003 µM, first compound 0.1 µM
[15] = second compound 0.0003 µM, first compound 0.316 µM
[16] = second compound 0.0003 µM, first compound 1 µM
[17] = second compound 0.0003 µM, first compound 3.16 µM
[18] = second compound 0.0003 µM, first compound 10 µM
[19] = second compound 0.000949 µM, first compound 0.0316 µM
[20] = second compound 0.000949 µM, first compound 0.1 µM
[21] = second compound 0.000949 µM, first compound 0.316 µM
[22] = second compound 0.000949 µM, first compound 1 µM
[23] = second compound 0.000949 µM, first compound 3.16 µM
[24] = second compound 0.000949 µM, first compound 10 µM
[25] = second compound 0.003 µM, first compound 0.0316 µM
[26] = second compound 0.003 µM, first compound 0.1 µM
[27] = second compound 0.003 µM, first compound 0.316 µM
[28] = second compound 0.003 µM, first compound 1 µM
[29] = second compound 0.003 µM, first compound 3.16 µM
[30] = second compound 0.003 µM, first compound 10 µM

## CC1COCCN1c1cc(-c2ccnn2C)c2ccnc(-c3ccn[nH]3)c2n1 (stereo not given) + COc1cc2c(cc1O)CCNC21CSC2c3c(OC(C)=O)c(C)c4c(c3C(COC1=O)N1C(O)C3Cc5cc(C)c(OC)c(O)c5C(C21)N3C)OCO4
Second compound 30 pM
  IC50: 156 nM
Second compound 94.9 pM
  IC50: 102 nM
Second compound 0.0003 µM
  IC50: < 31.6 nM
Second compound 0.000949 µM
  IC50: < 31.6 nM
Second compound 0.003 µM
  IC50: < 31.6 nM
[1]
  viability, T/C: 81.9%
[2]
  viability, T/C: 53.9%
[3]
  viability, T/C: 43.1%
[4]
  viability, T/C: 42.9%
[5]
  viability, T/C: 40.7%
[6]
  viability, T/C: 38.9%
[7]
  viability, T/C: 71.7%
[8]
  viability, T/C: 50.1%
[9]
  viability, T/C: 37.5%
[10]
  viability, T/C: 38.5%
[11]
  viability, T/C: 40.6%
[12]
  viability, T/C: 41%
[13]
  viability, T/C: 46.4%
[14]
  viability, T/C: 37%
[15]
  viability, T/C: 32%
[16]
  viability, T/C: 30.1%
[17]
  viability, T/C: 43%
[18]
  viability, T/C: 38.3%
[19]
  viability, T/C: 27.4%
[20]
  viability, T/C: 25%
[21]
  viability, T/C: 21.3%
[22]
  viability, T/C: 25.9%
[23]
  viability, T/C: 18.1%
[24]
  viability, T/C: 13.9%
[25]
  viability, T/C: 11.5%
[26]
  viability, T/C: 10.2%
[27]
  viability, T/C: 8.78%
[28]
  viability, T/C: 5.28%
[29]
  viability, T/C: 0.36%
[30]
  viability, T/C: 0.46%

## COc1cc(C)[nH]c(=O)c1CN1CCc2c(Cl)cc(C(OC)C3COC3)c(Cl)c2C1=O (stereo not given) + COc1cc2c(cc1O)CCNC21CSC2c3c(OC(C)=O)c(C)c4c(c3C(COC1=O)N1C(O)C3Cc5cc(C)c(OC)c(O)c5C(C21)N3C)OCO4
Second compound 30 pM
  IC50: > 10000 nM
Second compound 94.9 pM
  IC50: > 10000 nM
Second compound 0.0003 µM
  IC50: > 10000 nM
Second compound 0.000949 µM
  IC50: > 10000 nM
Second compound 0.003 µM
  IC50: < 31.6 nM
[1]
  viability, T/C: 107%
[2]
  viability, T/C: 103%
[3]
  viability, T/C: 100%
[4]
  viability, T/C: 108%
[5]
  viability, T/C: 102%
[6]
  viability, T/C: 101%
[7]
  viability, T/C: 98.7%
[8]
  viability, T/C: 103%
[9]
  viability, T/C: 103%
[10]
  viability, T/C: 101%
[11]
  viability, T/C: 100%
[12]
  viability, T/C: 99.2%
[13]
  viability, T/C: 98%
[14]
  viability, T/C: 102%
[15]
  viability, T/C: 98.7%
[16]
  viability, T/C: 95%
[17]
  viability, T/C: 96.1%
[18]
  viability, T/C: 93.2%
[19]
  viability, T/C: 77.7%
[20]
  viability, T/C: 73.6%
[21]
  viability, T/C: 72.1%
[22]
  viability, T/C: 64.7%
[23]
  viability, T/C: 68.2%
[24]
  viability, T/C: 56%
[25]
  viability, T/C: 19.5%
[26]
  viability, T/C: 21.6%
[27]
  viability, T/C: 23.1%
[28]
  viability, T/C: 18.3%
[29]
  viability, T/C: 19%
[30]
  viability, T/C: 10.5%

## Cc1cc(C)c(CNC(=O)c2cc(-c3ccc(CN4CCOCC4)cc3)cc3c2cnn3C2CCCC2)c(=O)[nH]1 + COc1cc2c(cc1O)CCNC21CSC2c3c(OC(C)=O)c(C)c4c(c3C(COC1=O)N1C(O)C3Cc5cc(C)c(OC)c(O)c5C(C21)N3C)OCO4
Second compound 30 pM
  IC50: > 10000 nM
Second compound 94.9 pM
  IC50: > 10000 nM
Second compound 0.0003 µM
  IC50: > 10000 nM
Second compound 0.000949 µM
  IC50: 273 nM
Second compound 0.003 µM
  IC50: < 31.6 nM
[1]
  viability, T/C: 103%
[2]
  viability, T/C: 97.4%
[3]
  viability, T/C: 102%
[4]
  viability, T/C: 104%
[5]
  viability, T/C: 96.9%
[6]
  viability, T/C: 84.4%
[7]
  viability, T/C: 105%
[8]
  viability, T/C: 97.8%
[9]
  viability, T/C: 98.7%
[10]
  viability, T/C: 99.5%
[11]
  viability, T/C: 93.5%
[12]
  viability, T/C: 76.8%
[13]
  viability, T/C: 92%
[14]
  viability, T/C: 96.2%
[15]
  viability, T/C: 92.8%
[16]
  viability, T/C: 86.2%
[17]
  viability, T/C: 80.1%
[18]
  viability, T/C: 63.1%
[19]
  viability, T/C: 56.8%
[20]
  viability, T/C: 75.2%
[21]
  viability, T/C: 39.9%
[22]
  viability, T/C: 31.6%
[23]
  viability, T/C: 24.5%
[24]
  viability, T/C: 9.44%
[25]
  viability, T/C: 13.7%
[26]
  viability, T/C: 5.99%
[27]
  viability, T/C: 2.02%
[28]
  viability, T/C: 0.27%
[29]
  viability, T/C: 0.25%
[30]
  viability, T/C: 0.32%

## Cc1sc2c(c1C)C(c1ccc(Cl)cc1)=NC(CC(=O)Nc1ccc(O)cc1)c1nnc(C)n1-2 (stereo not given) + COc1cc2c(cc1O)CCNC21CSC2c3c(OC(C)=O)c(C)c4c(c3C(COC1=O)N1C(O)C3Cc5cc(C)c(OC)c(O)c5C(C21)N3C)OCO4
Second compound 30 pM
  IC50: > 3000 nM
Second compound 94.9 pM
  IC50: > 3000 nM
Second compound 0.0003 µM
  IC50: > 3000 nM
Second compound 0.000949 µM
  IC50: 772 nM
Second compound 0.003 µM
  IC50: < 9.49 nM
Second compound 30 pM, first compound 0.00949 µM
  viability, T/C: 109%
Second compound 30 pM, first compound 0.03 µM
  viability, T/C: 112%
Second compound 30 pM, first compound 0.0949 µM
  viability, T/C: 113%
Second compound 30 pM, first compound 0.3 µM
  viability, T/C: 103%
Second compound 30 pM, first compound 0.949 µM
  viability, T/C: 94%
Second compound 30 pM, first compound 3 µM
  viability, T/C: 83%
Second compound 94.9 pM, first compound 0.00949 µM
  viability, T/C: 106%
Second compound 94.9 pM, first compound 0.03 µM
  viability, T/C: 107%
Second compound 94.9 pM, first compound 0.0949 µM
  viability, T/C: 109%
Second compound 94.9 pM, first compound 0.3 µM
  viability, T/C: 103%
Second compound 94.9 pM, first compound 0.949 µM
  viability, T/C: 93.4%
Second compound 94.9 pM, first compound 3 µM
  viability, T/C: 70.2%
Second compound 0.0003 µM, first compound 0.00949 µM
  viability, T/C: 102%
Second compound 0.0003 µM, first compound 0.03 µM
  viability, T/C: 110%
Second compound 0.0003 µM, first compound 0.0949 µM
  viability, T/C: 103%
Second compound 0.0003 µM, first compound 0.3 µM
  viability, T/C: 97.1%
Second compound 0.0003 µM, first compound 0.949 µM
  viability, T/C: 85.2%
Second compound 0.0003 µM, first compound 3 µM
  viability, T/C: 72.4%
Second compound 0.000949 µM, first compound 0.00949 µM
  viability, T/C: 81.6%
Second compound 0.000949 µM, first compound 0.03 µM
  viability, T/C: 94.7%
Second compound 0.000949 µM, first compound 0.0949 µM
  viability, T/C: 88.7%
Second compound 0.000949 µM, first compound 0.3 µM
  viability, T/C: 76.9%
Second compound 0.000949 µM, first compound 0.949 µM
  viability, T/C: 44.3%
Second compound 0.000949 µM, first compound 3 µM
  viability, T/C: 26.3%
Second compound 0.003 µM, first compound 0.00949 µM
  viability, T/C: 24.1%
Second compound 0.003 µM, first compound 0.03 µM
  viability, T/C: 24.6%
Second compound 0.003 µM, first compound 0.0949 µM
  viability, T/C: 29.2%
Second compound 0.003 µM, first compound 0.3 µM
  viability, T/C: 20.9%
Second compound 0.003 µM, first compound 0.949 µM
  viability, T/C: 9.4%
Second compound 0.003 µM, first compound 3 µM
  viability, T/C: 1.27%

## [2H]c1nc(C)nc([2H])c1-c1cc(NC[C@@H](C)c2cccc3c(C(=O)NC)ccnc23)ncn1 + COc1cc2c(cc1O)CCNC21CSC2c3c(OC(C)=O)c(C)c4c(c3C(COC1=O)N1C(O)C3Cc5cc(C)c(OC)c(O)c5C(C21)N3C)OCO4
Second compound 30 pM
  IC50: > 10000 nM
Second compound 94.9 pM
  IC50: > 10000 nM
Second compound 0.0003 µM
  IC50: > 10000 nM
Second compound 0.000949 µM
  IC50: 6590 nM
Second compound 0.003 µM
  IC50: < 31.6 nM
[1]
  viability, T/C: 106%
[2]
  viability, T/C: 105%
[3]
  viability, T/C: 102%
[4]
  viability, T/C: 107%
[5]
  viability, T/C: 102%
[6]
  viability, T/C: 98.7%
[7]
  viability, T/C: 106%
[8]
  viability, T/C: 102%
[9]
  viability, T/C: 99%
[10]
  viability, T/C: 98.2%
[11]
  viability, T/C: 97.6%
[12]
  viability, T/C: 99.5%
[13]
  viability, T/C: 97.6%
[14]
  viability, T/C: 94.8%
[15]
  viability, T/C: 93%
[16]
  viability, T/C: 88.5%
[17]
  viability, T/C: 98%
[18]
  viability, T/C: 91.3%
[19]
  viability, T/C: 78.6%
[20]
  viability, T/C: 76.5%
[21]
  viability, T/C: 71.1%
[22]
  viability, T/C: 66.2%
[23]
  viability, T/C: 56.2%
[24]
  viability, T/C: 46.2%
[25]
  viability, T/C: 18.6%
[26]
  viability, T/C: 22.6%
[27]
  viability, T/C: 18%
[28]
  viability, T/C: 18.1%
[29]
  viability, T/C: 11%
[30]
  viability, T/C: 3.59%
